Measurements as given in PubChem BioAssay AID248 (DTP/NCI, 2004).
Toxic doses and inconclusive results are not listed. Cut-off read from the data, not from the text of the source: active = T/C of 150% or more; inactive = T/C below 125%.

System: L1210 leukemia ip in BDF1 mice, survival T/C
Experiment: NCI In Vivo Anticancer Drug Screen. Data for tumor model L1210 Leukemia (intraperitoneal) in B6D2F1 (BDF1) mice
Details: endpoint: mean survival time, higher = longer survival
Procedure, shortened: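 Antitumor effect is assessed in tumor-bearing animals. Survival in the compound arm is compared with a vehicle-dosed control arm and expressed as their quotient.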

[1] = dose: 100.0 mg/kg/injection, schedule: Q01DX009 (ip), vehicle: saline with Tween-80
[2] = dose: 100.0 mg/kg/injection, schedule: Q04DX002 (ip), vehicle: saline with Tween-80
[3] = dose: 200.0 mg/kg/injection, schedule: Q01DX009 (ip), vehicle: saline with Tween-80
[4] = dose: 200.0 mg/kg/injection, schedule: Q04DX002 (ip), vehicle: saline with Tween-80
[5] = dose: 400.0 mg/kg/injection, schedule: Q01DX009 (ip), vehicle: saline with Tween-80
[6] = dose: 400.0 mg/kg/injection, schedule: Q04DX002 (ip), vehicle: saline with Tween-80
[7] = dose: 100.0 mg/kg/injection, schedule: Q04DX002 (ip), vehicle: Klucel (hydroxypropylcellulose) (HPC)
[8] = dose: 200.0 mg/kg/injection, schedule: Q04DX002 (ip), vehicle: Klucel (hydroxypropylcellulose) (HPC)
[9] = dose: 400.0 mg/kg/injection, schedule: Q04DX002 (ip), vehicle: Klucel (hydroxypropylcellulose) (HPC)
[10] = dose: 25.0 mg/kg/injection, schedule: Q01DX009 (ip), vehicle: saline
[11] = dose: 50.0 mg/kg/injection, schedule: Q01DX009 (ip), vehicle: saline
[12] = dose: 100.0 mg/kg/injection, schedule: Q01DX009 (ip), vehicle: other
[13] = dose: 100.0 mg/kg/injection, schedule: Q04DX003 (ip), vehicle: saline with Tween-80
[14] = dose: 200.0 mg/kg/injection, schedule: Q04DX003 (ip), vehicle: saline with Tween-80
[15] = dose: 400.0 mg/kg/injection, schedule: Q04DX003 (ip), vehicle: saline with Tween-80
[16] = dose: 100.0 mg/kg/injection, schedule: Q01DX001 (ip), vehicle: carboxymethylcellulose (CMC)
[17] = dose: 200.0 mg/kg/injection, schedule: Q01DX001 (ip), vehicle: carboxymethylcellulose (CMC)
[18] = dose: 400.0 mg/kg/injection, schedule: Q01DX001 (ip), vehicle: carboxymethylcellulose (CMC)
[19] = dose: 12.5 mg/kg/injection, schedule: Q01DX009 (ip), vehicle: Klucel (hydroxypropylcellulose) (HPC)
[20] = dose: 100.0 mg/kg/injection, schedule: Q01DX009 (ip), vehicle: saline
[21] = dose: 100.0 mg/kg/injection, schedule: Q01DX009 (ip), vehicle: Klucel (hydroxypropylcellulose) (HPC)
[22] = dose: 100.0 mg/kg/injection, schedule: Q04DX003 (ip), vehicle: Klucel (hydroxypropylcellulose) (HPC)
[23] = dose: 200.0 mg/kg/injection, schedule: Q01DX009 (ip), vehicle: Klucel (hydroxypropylcellulose) (HPC)
[24] = dose: 200.0 mg/kg/injection, schedule: Q04DX003 (ip), vehicle: Klucel (hydroxypropylcellulose) (HPC)
[25] = dose: 400.0 mg/kg/injection, schedule: Q01DX009 (ip), vehicle: Klucel (hydroxypropylcellulose) (HPC)
[26] = dose: 400.0 mg/kg/injection, schedule: Q04DX003 (ip), vehicle: Klucel (hydroxypropylcellulose) (HPC)

Measured: T/C

CC(C)(O)C1CC1
inactive: dose: 100.0 mg/kg/injection, schedule: Q01DX005 (ip), vehicle: saline with Tween-80 97 % of control | [1] 88 % of control | [2] 101 % of control | dose: 200.0 mg/kg/injection, schedule: Q01DX005 (ip), vehicle: saline with Tween-80 94 % of control | [3] 94 % of control | [4] 108 % of control | dose: 400.0 mg/kg/injection, schedule: Q01DX005 (ip), vehicle: saline with Tween-80 101 % of control | [5] 91 % of control | [6] 96 % of control

CC(=O)OC1CCC2(C)C(=CCC3C2CCC2(C)C3CC3C(c4ccccc4)=NN(c4ccccc4)C32C(C)=O)C1 (configuration not stated)
inactive: [7] 92 % of control | [8] 103 % of control | [9] 92 % of control

Cc1[nH]c2ccccc2c(=O)c1/C=N/NC(N)=S
inactive: [7] 109 % of control | [8] 91 % of control | [9] 98 % of control

CN(N=O)P(=O)(Nc1ccccc1)Nc1ccccc1
inactive: [10] 111 % of control | [11] 117 % of control | dose: 66.0 mg/kg/injection, schedule: Q01DX009 (ip), vehicle: other 103 % of control | [12] 100 % of control | dose: 100.0 mg/kg/injection, schedule: Q04DX003 (ip), vehicle: saline sonified 122 % of control | dose: 150.0 mg/kg/injection, schedule: Q01DX009 (ip), vehicle: other 88 % of control

Cc1cccc(C(=O)CC(O)(C(F)(F)F)C(F)(F)F)n1
inactive: [13] 92 % of control | [14] 86 % of control | [15] 90 % of control

CC(=O)NCc1ccc(N2C(N)=NC(N)=NC2(C)C)cc1
inactive: dose: 75.0 mg/kg/injection, schedule: Q01DX009 (ip), vehicle: saline 92 % of control | dose: 150.0 mg/kg/injection, schedule: Q01DX009 (ip), vehicle: saline 87 % of control | dose: 300.0 mg/kg/injection, schedule: Q01DX009 (ip), vehicle: saline 90 % of control

CC12CCC(=O)C3C1CCCC32
inactive: [16] 100 % of control | [17] 111 % of control | [18] 103 % of control

CCCCN1C(=O)c2ccncc2C1=O
inactive: dose: 100.0 mg/kg/injection, schedule: Q01DX001 (ip), vehicle: saline with Tween-80 95 % of control | [13] 98 % of control | dose: 200.0 mg/kg/injection, schedule: Q01DX001 (ip), vehicle: saline with Tween-80 98 % of control | [14] 103 % of control | dose: 400.0 mg/kg/injection, schedule: Q01DX001 (ip), vehicle: saline with Tween-80 111 % of control | [15] 100 % of control

CC1(C)CC(=O)c2c(cc(OS(C)(=O)=O)cc2OS(C)(=O)=O)O1
inactive: dose: 3.12 mg/kg/injection, schedule: Q01DX009 (ip), vehicle: Klucel (hydroxypropylcellulose) (HPC) 90 % of control | dose: 6.25 mg/kg/injection, schedule: Q01DX009 (ip), vehicle: Klucel (hydroxypropylcellulose) (HPC) 97 % of control | [19] 94 % of control

Nc1ncnc2nc(C3OC(CO)C(O)C3O)[nH]c12 (configuration not stated)
inactive: dose: 100.0 mg/kg/injection, schedule: Q01DX005 (ip), vehicle: saline 96 % of control | dose: 200.0 mg/kg/injection, schedule: Q01DX005 (ip), vehicle: saline 96 % of control

CC1CC1C(=O)Cl (configuration not stated)
inactive: [11] 97 % of control | [20] 101 % of control

CC1CC=C(/C=N\NC(=O)c2ccc[n+](C)c2)C(C)O1 (configuration not stated)
inactive: dose: 50.0 mg/kg/injection, schedule: Q01DX009 (ip), vehicle: saline with Tween-80 96 % of control | [1] 96 % of control | [3] 93 % of control

N#Cc1c(SCC(=O)O)nsc1SCC(=O)O
inactive: dose: 100.0 mg/kg/injection, schedule: Q04DX002 (ip), vehicle: gum acacia 97 % of control | dose: 200.0 mg/kg/injection, schedule: Q04DX002 (ip), vehicle: gum acacia 94 % of control | dose: 400.0 mg/kg/injection, schedule: Q04DX002 (ip), vehicle: gum acacia 100 % of control

CCCCCCCCCCCCCCCCCCCC
inactive: dose: 25.0 mg/kg/injection, schedule: Q01DX009 (ip), vehicle: other 109 % of control | dose: 50.0 mg/kg/injection, schedule: Q01DX009 (ip), vehicle: other 101 % of control | [12] 93 % of control

CCOC(=O)CC1(C)CCC2C1C(=O)OC2(C)C (configuration not stated)
inactive: dose: 100.0 mg/kg/injection, schedule: Q01DX001 (ip), vehicle: saline 105 % of control | dose: 200.0 mg/kg/injection, schedule: Q01DX001 (ip), vehicle: saline 104 % of control | dose: 400.0 mg/kg/injection, schedule: Q01DX001 (ip), vehicle: saline 110 % of control

c1ccc(C2=Nc3ccccc3N=C3CCCC32)cc1 (configuration not stated)
inactive: [16] 103 % of control | [17] 100 % of control | [18] 97 % of control

Cn1c(O)c(C=N)c(=O)n(C)c1=O
inactive: [10] 101 % of control | [11] 100 % of control | [20] 87 % of control | dose: 100.0 mg/kg/injection, schedule: Q04DX003 (ip), vehicle: saline 98 % of control

Cn1c2c(c(=O)n(C)c1=O)C(C(=O)O)CC(=O)N2 (configuration not stated)
inactive: [21] 103 % of control | [22] 103 % of control | [23] 102 % of control | [24] 102 % of control | [25] 100 % of control | [26] 110 % of control

O=C1CSC(=S)N1c1ccc(N2C(=O)CSC2=S)cc1
inactive: [2] 90 % of control | [4] 96 % of control | [6] 100 % of control

CCCCNc1cc(N)[nH]c(=O)n1
inactive: dose: 75.0 mg/kg/injection, schedule: Q01DX001 (ip), vehicle: saline with Tween-80 93 % of control | dose: 150.0 mg/kg/injection, schedule: Q01DX001 (ip), vehicle: saline with Tween-80 90 % of control | dose: 300.0 mg/kg/injection, schedule: Q01DX001 (ip), vehicle: saline with Tween-80 90 % of control

Cc1ccc(/C=C/C(=O)c2ccc(Cl)cc2)cc1
inactive: [1] 108 % of control | [13] 93 % of control | [3] 94 % of control | [14] 101 % of control | [5] 97 % of control | [15] 91 % of control

O=C(/C=C/c1ccccc1)NC(=S)Nc1ccc(C(=O)O)cc1
inactive: [21] 92 % of control | [22] 101 % of control | [23] 101 % of control | [24] 100 % of control | [25] 94 % of control | [26] 108 % of control

COc1cccc(/C=C/[N+](=O)[O-])c1
inactive: [19] 95 % of control | dose: 25.0 mg/kg/injection, schedule: Q01DX009 (ip), vehicle: Klucel (hydroxypropylcellulose) (HPC) 98 % of control | dose: 25.0 mg/kg/injection, schedule: Q04DX003 (ip), vehicle: Klucel (hydroxypropylcellulose) (HPC) 89 % of control | dose: 45.0 mg/kg/injection, schedule: Q04DX003 (ip), vehicle: saline with Tween-80 103 % of control | dose: 50.0 mg/kg/injection, schedule: Q01DX009 (ip), vehicle: Klucel (hydroxypropylcellulose) (HPC) 97 % of control | dose: 50.0 mg/kg/injection, schedule: Q04DX003 (ip), vehicle: Klucel (hydroxypropylcellulose) (HPC) 96 % of control | dose: 90.0 mg/kg/injection, schedule: Q04DX003 (ip), vehicle: saline with Tween-80 106 % of control | dose: 180.0 mg/kg/injection, schedule: Q04DX003 (ip), vehicle: saline with Tween-80 90 % of control

CCNC(=S)NCC
inactive: dose: 100.0 mg/kg/injection, schedule: Q04DX003 (ip), vehicle: carboxymethylcellulose (CMC) 98 % of control | dose: 200.0 mg/kg/injection, schedule: Q04DX003 (ip), vehicle: carboxymethylcellulose (CMC) 102 % of control | dose: 400.0 mg/kg/injection, schedule: Q04DX003 (ip), vehicle: carboxymethylcellulose (CMC) 107 % of control
